Measurements published in ChEMBL document CHEMBL4350972, “Design, synthesis and pharmacological evaluation of a novel mTOR-targeted anti-EV71 agent” (Eur J Med Chem, 2019).
Converted amounts (≈) assume the structure as drawn. The source made the active and inactive calls. The rule behind the calls is not given here.

How the values were obtained:
[1] = system: Enterovirus A71; assay: Antiviral activity against Enterovirus A71 infected in human RD cells assessed as reduction in virus-induced cell death incubated for 4 days by CellTiter-Glo luminescence assay; assay type: functional, organism-based; conditions: Enterovirus A, 96 h
[2] = Cytotoxicity against human RD cells incubated for 4 days by CellTiter-Glo luminescence assay; assay type: cell-based
[3] = target: mTORC1 (Homo sapiens) (UniProt P42345+Q8N122+Q9BVC4); assay: Inhibition of mTORC1 in human RD cells assessed as reduction in P70S6K1 phosphorylation at Thr 389 site at 20 uM incubated for 2 hrs in presence of insulin by Western blot analysis; assay type: cell-based
[4] = target: mTORC2 (Homo sapiens) (UniProt P42345+Q6R327+Q9BVC4+Q9BPZ7); assay: Inhibition of mTORC2 in human RD cells assessed as reduction in Akt phosphorylation at Ser473 site at 20 uM incubated for 2 hrs in presence of insulin by Western blot analysis; assay type: cell-based
[5] = Ratio of aqueous solubility for Torin2 to aqueous solubility for test compound; assay type: physicochemical; conditions: buffer
[6] = Aqueous solubility of the compound; assay type: physicochemical

inhibition [3]	inhibition [4]	Ratio [5]	solubility [6] [µg/mL]	SMILES	IC50 [1] [nM]	CC50 at 96 h [2] [nM]
Active	Active	–	–	O=c1ccc2cnc3ccc(-c4ccc(N5CCOCC5)nc4)cc3c2n1-c1cccc(C(F)(F)F)c1	2630	2910
–	–	–	–	CC(=O)/C=C/c1cnc2ccc(-c3cccc(N)c3)cc2c1Nc1cccc(C(F)(F)F)c1	–	> 200000
Active	–	–	–	CO[C@H]1C[C@@H]2CC[C@@H](C)[C@@](O)(O2)C(=O)C(=O)N2CCCC[C@H]2C(=O)O[C@H]([C@H](C)C[C@@H]2CC[C@@H](O)[C@H](OC)C2)CC(=O)[C@H](C)/C=C(\C)[C@@H](O)[C@@H](OC)C(=O)[C@H](C)C[C@H](C)/C=C/C=C/C=C/1C	–	–
inactive	inactive	–	–	NC(=O)NC/C=C/c1ccc2ncc3oc(=O)n(-c4cccc(C(F)(F)F)c4)c3c2c1	48900	66600
–	–	–	–	N#C/C=C/c1ccc2ncc3oc(=O)n(-c4cccc(C(F)(F)F)c4)c3c2c1	–	> 200000
Active	Active	–	–	CN(C)c1ccc(-c2ccc3ncc4ccc(=O)n(-c5cccc(C(F)(F)F)c5)c4c3c2)cn1	270	170
–	–	–	–	COc1ncccc1-c1ccc2ncc3ccc(=O)n(-c4cccc(C(F)(F)F)c4)c3c2c1	–	> 200000
inactive	inactive	–	–	CC(=O)/C=C/c1cnc2ccc(-c3ccc(N)cc3)cc2c1Nc1cccc(C(F)(F)F)c1	5140	5140
–	–	–	–	COC(=O)/C=C/c1ccc2ncc3oc(=O)n(-c4cccc(C(F)(F)F)c4)c3c2c1	–	72000
Active	Active	–	–	CC(C)(C)OC(=O)Nc1ccc(-c2ccc3ncc4ccc(=O)n(-c5cccc(C(F)(F)F)c5)c4c3c2)cn1	2470	690
Active	Active	–	–	COc1ccc(-c2ccc3ncc4ccc(=O)n(-c5cccc(C(F)(F)F)c5)c4c3c2)cn1	40	130
–	–	–	–	CC(=O)/C=C/c1cnc2ccc(-c3cnc4ccccc4c3)cc2c1Nc1cccc(C(F)(F)F)c1	–	680
Active	Active	–	–	Nc1cccc(Nc2ccc3ncc4ccc(=O)n(-c5cccc(C(F)(F)F)c5)c4c3c2)c1	890	7580
–	–	–	–	COc1cncc(-c2ccc3ncc(/C=C/C(C)=O)c(Nc4cccc(C(F)(F)F)c4)c3c2)c1	–	> 200000
Active	Active	5	–	O=c1ccc2cnc3ccc(-c4cccnc4F)cc3c2n1-c1cccc(C(F)(F)F)c1	59	1230
Active	Active	–	–	O=c1ccc2cnc3ccc(-c4ccc(F)nc4)cc3c2n1-c1cccc(C(F)(F)F)c1	70	230

inhibition [3]	inhibition [4]	Ratio [5]	solubility [6] [µg/mL]	SMILES	IC50 [1] [nM]	CC50 at 96 h [2] [nM]
Active	–	15	–	CN1CCN(c2ccc(-c3ccc4ncc5ccc(=O)n(-c6cccc(C(F)(F)F)c6)c5c4c3)cn2)CC1	90	180
Active	Active	–	–	Nc1cccc(Nc2ccc3ncc4ccc(=O)n(-c5cccc(C(F)(F)F)c5)c4c3c2)n1	2470	5190
Active	Active	–	–	O=c1ccc2cnc3ccc(-c4ccc(N5CCCC5)nc4)cc3c2n1-c1cccc(C(F)(F)F)c1	2470	1790
Active	Active	–	–	CCCCC(=O)Nc1ccc(-c2ccc3ncc4ccc(=O)n(-c5cccc(C(F)(F)F)c5)c4c3c2)cn1	200	700
Active	Active	–	–	O=C(Nc1ccc(-c2ccc3ncc4ccc(=O)n(-c5cccc(C(F)(F)F)c5)c4c3c2)cn1)OCc1ccccc1	23700	1000
Active	Active	–	–	CC(C)C(=O)Nc1ccc(-c2ccc3ncc4ccc(=O)n(-c5cccc(C(F)(F)F)c5)c4c3c2)cn1	820	460
inactive	inactive	–	–	Cc1ccc(-c2ccc3ncc4oc(=O)n(-c5cccc(C(F)(F)F)c5)c4c3c2)cn1	4780	16900
–	–	–	–	COc1cncc(-c2ccc3ncc4oc(=O)n(-c5cccc(C(F)(F)F)c5)c4c3c2)c1	–	68500
Active	Active	–	–	CCC(=O)Nc1ccc(-c2ccc3ncc4ccc(=O)n(-c5cccc(C(F)(F)F)c5)c4c3c2)cn1	27	40
Active	Active	–	–	CCCC(=O)Nc1ccc(-c2ccc3ncc4ccc(=O)n(-c5cccc(C(F)(F)F)c5)c4c3c2)cn1	170	750
Active	–	–	–	O=C1Cc2cc(-c3ccc4ncc5ccc(=O)n(-c6cccc(C(F)(F)F)c6)c5c4c3)ccc2N1	7400	10300
–	–	–	–	O=c1oc2cnc3ccc(-c4cnc5ccccc5c4)cc3c2n1-c1cccc(C(F)(F)F)c1	–	68900
–	–	–	–	CC(=O)/C=C/c1cnc2ccc(-c3ccc(F)nc3)cc2c1Nc1cccc(C(F)(F)F)c1	–	2230
–	–	–	1.29 (≈ 2.98 µM)	Nc1ccc(-c2ccc3ncc4ccc(=O)n(-c5cccc(C(F)(F)F)c5)c4c3c2)cn1	10	–
Active	Active	–	–	O=C(Cc1ccccc1)Nc1ccc(-c2ccc3ncc4ccc(=O)n(-c5cccc(C(F)(F)F)c5)c4c3c2)cn1	560	740

SMILES	inhibition [3]	inhibition [4]	Ratio [5]	solubility [6] [µg/mL]	IC50 [1] [nM]	CC50 at 96 h [2] [nM]
O=C(Nc1ccc(-c2ccc3ncc4ccc(=O)n(-c5cccc(C(F)(F)F)c5)c4c3c2)cn1)Oc1ccccc1	Active	Active	–	–	90	200
